# Source: publication PMC13047053, “Crystal structure of human INPP5K with an allosteric inhibitor reveals the structural basis for species specific potency” (Scientific Reports, 2026)
# Experiments:
# guinea pig INPP5K = guinea pig INPP5K (Cavia porcellus, UniProt H0V8T7); assay: Inorganic phosphate detection assay for phosphatase inhibition; format: biochemical; conditions: 20 µM diC8-PI(3,4,5)P3, 20 min
# Description: The protein purification is described in detail elsewhere. Briefly, full-length human INPP5K (amino acids 1–448, UniProt ID: Q9BT40), rat INPP5K (aa 1–446, UniProt ID: Q9R0B6), mouse INPP5K (aa 1–468, UniProt ID: Q8C5L6), hamster INPP5K (aa 1–453, UniProt ID: G3HTF6), guinea pig INPP5K (aa 1–473, UniProt ID: H0V8T7) containing an N-terminal FLAG-tag, full-length human SHIP2 (aa 1–1 258) containing a C-terminal FLAG-tag, and full-length human PIPP (amino acids 1–1 006) containing an N-terminal His8-tag were all cloned into the pcDNA3.4 expression vector and transiently expressed in Expi293 cells (Thermo Fisher Scientific). The PH domain of human TAPP1 (amino acids 180–404) containing an N-terminal GST-tag was expressed in a pGEX6P1 expression vector (GE Healthcare) in E. coli strain BL21 ((Merck KGaA, Darmstadt, Germany)), following IPTG induction at 37 °C for 5 h. All the FLAG-tagged INPP5Ks and hSHIP2 were purified using affinity columns containing DDDDK-tagged protein purification gel (MBL, Medical & Biological Laboratories Co., Ltd., Tokyo, Japan), followed by size-exclusion chromatography with Superdex 200 columns (GE Healthcare). His8-tagged hPIPP was purified using Ni–NTA Superflow (Qiagen) and Superdex 200 columns. The GST-tagged hTAPP1 domain was purified using a Glutathione Sepharose 4B (GE Healthcare) and Superdex 200 columns. The purity of the protein obtained was evaluated using SDS-PAGE.
# The release of inorganic phosphate was measured using a PiPer Phosphate Assay Kit (Thermo Fisher Scientific), according to the manufacturer’s instructions, but with some modifications. Enzyme reactions were performed in a final volume of 10 µL per well in a 384-well nonbinding black plates (Greiner Bio-One International, GmbH, Kremsmünster, Austria). The reaction mixtures containing 20 µM diC8-PI(3,4,5)P₃ and each enzyme (human INPP5K, mouse INPP5K, rat INPP5K, hamster INPP5K, guinea pig INPP5K, human SHIP2, or human PIPP) in reaction buffer (50 mM Tris–HCl pH 7.0, 150 mM NaCl, 7.5 mM MgCl₂, 0.03% Igepal CA-630, 0.03% gelatin), with or without various concentrations of inhibitor, were incubated for 20 min at room temperature. The reactions were then stopped and detection reactions were initiated by adding 5 µL of detection mix 1 (60 mM EDTA, 12 U/mL maltose phosphorylase, and 0.6 mM maltose in 100 mM Tris–HCl pH 8.0). After incubation for 60 min at room temperature, 5 µL of detection mix 2 (8 U/mL glucose oxidase, 0.8 U/mL HRP, and 100 µM Amplex Red in 100 mM Tris–HCl pH 8.0) was added, and the mixture was incubated for a further 30 min at room temperature in the dark. The fluorescence generated was measured using an Envision plate reader at 531/590 nm (excitation/emission), and the percentage inhibition was calculated as described above.
# [1] = target: T1, full-length human INPP5K (INPP5K-full) (Homo sapiens, UniProt Q9BT40); assay: Fluorescence polarization assay to evaluate phosphatase inhibition; format: biochemical; conditions: 20 µM diC8-PI(3,4,5)P3, 30 min
# T1 construct: full-length human INPP5K (amino acids 1–448, UniProt ID: Q9BT40); FLAG (N); made in house; host or cells: Expi293 cells (pcDNA3.4, transient)
# T1 sequence (Q9BT40 1-448): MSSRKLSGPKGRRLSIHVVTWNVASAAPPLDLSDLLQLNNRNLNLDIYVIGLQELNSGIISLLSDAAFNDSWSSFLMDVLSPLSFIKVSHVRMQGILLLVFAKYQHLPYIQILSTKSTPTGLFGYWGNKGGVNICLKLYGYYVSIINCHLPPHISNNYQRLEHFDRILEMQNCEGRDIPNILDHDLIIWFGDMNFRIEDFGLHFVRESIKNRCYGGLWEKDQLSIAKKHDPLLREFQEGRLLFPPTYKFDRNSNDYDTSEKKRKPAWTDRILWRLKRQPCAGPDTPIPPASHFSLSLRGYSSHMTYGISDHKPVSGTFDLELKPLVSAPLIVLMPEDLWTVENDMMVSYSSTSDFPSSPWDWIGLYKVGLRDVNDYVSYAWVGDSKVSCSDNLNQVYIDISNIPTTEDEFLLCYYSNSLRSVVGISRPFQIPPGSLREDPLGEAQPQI
# Description: The protein purification is described in detail elsewhere. Briefly, full-length human INPP5K (amino acids 1–448, UniProt ID: Q9BT40), rat INPP5K (aa 1–446, UniProt ID: Q9R0B6), mouse INPP5K (aa 1–468, UniProt ID: Q8C5L6), hamster INPP5K (aa 1–453, UniProt ID: G3HTF6), guinea pig INPP5K (aa 1–473, UniProt ID: H0V8T7) containing an N-terminal FLAG-tag, full-length human SHIP2 (aa 1–1 258) containing a C-terminal FLAG-tag, and full-length human PIPP (amino acids 1–1 006) containing an N-terminal His8-tag were all cloned into the pcDNA3.4 expression vector and transiently expressed in Expi293 cells (Thermo Fisher Scientific). […] The purity of the protein obtained was evaluated using SDS-PAGE.
# HTS assays were performed as described previously. […] Fluorescence polarization was evaluated using an Envision plate reader (PerkinElmer, U.S. LLC, Shelton, CT, USA) at 531/595 nm (excitation/emission) and calculated as 1 000 × [(I||- (G × I⊥))/(I||+ (G × I⊥))], where I|| is the parallel intensity, I⊥ is the perpendicular intensity, and G = 2.25. The amount of diC8-PI(3,4)P₂ product (P) was determined by standard curve fitting, and the percentage inhibition was calculated using the following equation: 100 × (Pctrl—P)/(Pctrl—Pblank), where Pctrl is the no-inhibitor control and Pblank is the no-enzyme control. […]
# guinea pig INPP5K, sequence (H0V8T7 entry or part of it): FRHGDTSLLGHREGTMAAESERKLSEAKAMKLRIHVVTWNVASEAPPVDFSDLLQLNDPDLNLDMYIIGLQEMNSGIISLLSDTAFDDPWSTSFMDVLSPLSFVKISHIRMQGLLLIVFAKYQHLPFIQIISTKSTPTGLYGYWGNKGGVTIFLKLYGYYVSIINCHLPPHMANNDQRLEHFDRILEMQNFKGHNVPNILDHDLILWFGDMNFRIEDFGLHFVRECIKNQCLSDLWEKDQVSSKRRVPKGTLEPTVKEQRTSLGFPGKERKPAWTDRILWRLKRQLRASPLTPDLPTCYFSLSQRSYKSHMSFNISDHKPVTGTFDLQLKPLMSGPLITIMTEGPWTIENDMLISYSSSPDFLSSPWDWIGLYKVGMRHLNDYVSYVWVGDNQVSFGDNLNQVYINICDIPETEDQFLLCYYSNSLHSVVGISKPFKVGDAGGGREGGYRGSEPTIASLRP
structure (smiles),measurement,setting,value
CC(C)c1sc(NC(=O)c2ccccc2)c(C(=O)O)c1-c1ccccc1 [CPD-1],IC50,guinea pig INPP5K,59 µM
same,IC50,[1],3.7 µM
